Like-named read-outs stand apart in the source and are kept apart here.
Assays:
Cruzain = Cruzain (Trypanosoma cruzi, UniProt P25779); assay: Cysteine protease inhibition, progress curve method, cruzain; type: biochemical; details: 4 uM Ac-Lys-Glu-Lys-Leu-Arg-AMC, 100 mM Na acetate pH 5.5, 5 mM cysteine; read-out: Cruzain Ki
Summary of the method: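 Buffer was 100 mM sodium acetate pH 5.5 with 5 mM cysteine and 2% DMSO, at ambient temperature; reactions started with enzyme, and AMC formation was followed for 20–30 min. Substrates: Leishmania and Schistosoma, 10 uM Cbz-Phe-Arg-AMC; falcipain, 10 uM Cbz-Leu-Arg-AMC; cruzain, 4 uM Ac-Lys-Glu-Lys-Leu-Arg-AMC. Linear curves gave Ki,app; curved ones gave kobs/[I].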

Rhodazain = Rhodazain (Trypanosoma brucei rhodesiense, UniProt Q95PM0); assay: Cysteine protease inhibition, progress curve method, rhodazain; type: biochemical, Trypanosoma brucei rhodesiensi; details: 10 uM Cbz-Leu-Arg-AMC, 100 mM Na acetate pH 5.5, 5 mM cysteine
Rhodazain, sequence (Q95PM0 entry or part of it): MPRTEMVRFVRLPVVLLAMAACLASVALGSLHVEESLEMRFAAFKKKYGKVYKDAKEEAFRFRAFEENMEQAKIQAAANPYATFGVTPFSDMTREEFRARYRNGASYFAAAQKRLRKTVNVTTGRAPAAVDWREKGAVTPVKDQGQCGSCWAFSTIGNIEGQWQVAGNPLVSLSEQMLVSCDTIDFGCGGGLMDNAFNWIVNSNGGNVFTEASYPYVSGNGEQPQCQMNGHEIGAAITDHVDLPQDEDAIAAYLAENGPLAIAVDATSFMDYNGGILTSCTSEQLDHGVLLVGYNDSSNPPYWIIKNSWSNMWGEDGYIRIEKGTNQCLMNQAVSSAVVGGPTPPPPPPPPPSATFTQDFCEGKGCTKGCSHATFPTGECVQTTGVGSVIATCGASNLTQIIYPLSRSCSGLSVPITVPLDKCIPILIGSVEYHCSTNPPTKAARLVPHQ

Cruzain, sequence (P25779 123-337): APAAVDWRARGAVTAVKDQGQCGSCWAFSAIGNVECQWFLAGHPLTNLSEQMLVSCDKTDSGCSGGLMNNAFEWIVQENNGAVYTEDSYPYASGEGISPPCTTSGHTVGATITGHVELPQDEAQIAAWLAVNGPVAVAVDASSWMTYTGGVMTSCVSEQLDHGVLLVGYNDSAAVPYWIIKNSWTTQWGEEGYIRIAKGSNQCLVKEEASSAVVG

Molecule	Ki (Cruzain) [nM]	Ki (Rhodazain; Rhodazain Ki (nM)) [nM]	Ki (Rhodazain; read-out: Rhodazain Ki) [nM]
Cc1c(C(=O)N[C@@H](CC(C)C)C(=O)N[C@H]2CCCN(S(=O)(=O)c3ccccc3F)CC2=O)oc2ccccc12 [Example 94, 3-methylbenzofuran-2-carboxylic acid-{(S)-1-[1-(2-fluoro-benzenesulfonyl)-3-oxo-azepan-4-ylcarbamoyl]-3-methyl-butyl}-amide]	8.6	9.4	–
CC(C)C[C@H](NC(=O)c1cc2ccccc2o1)C(=O)N[C@H]1CCCN(S(=O)(=O)c2cccs2)CC1=O [Example 142, Benzofuran-2-carboxylic acid-{(S)-3-methyl-1-[3-oxo-1-(thiophene-2-sulfonyl)-azepan-4-ylcarbamoyl]-butyl}-amide]	2.4	5.2	–
COc1ccc2oc(C(=O)N[C@@H](CC(C)C)C(=O)N[C@H]3CCCN(S(=O)(=O)c4ccccc4F)CC3=O)cc2c1 [Example 92, 5-Methoxy-benzofuran-2-carboxylic acid-{(S)-1-[1-(2-fluoro-benzenesulfonyl)-3-oxo-azepan-4-ylcarbamoyl]-3-methyl-butyl}-amide]	49	6.3	–
5-(2-Morpholin-4-yl-ethoxy)-benzofuran-2-carboxylic acid {(S)-3-methyl-1-[3-oxo-(1-oxy-pyridine2-sulfonyl)-azepan-4-ylcarbamoyl]-buty}-amide [Example 116]	4.4	–	3.2
CC(C)C[C@@H](NC(=O)c1cc2cc(OCC[N+]3([O-])CCOCC3)ccc2o1)C(=O)N[C@@H]1CCCN(S(=O)(=O)c2ccccn2)CC1=O [Example 43, 5-(4-Oxy-morpholino-4-yl-ethoxy)-benzofuran-2-carboxylic acid {(S)-3-methyl-1-[3-oxo-1-(pyridine-2-sulfonyl)-azepan-4-ylcarbamoyl]-butyl}amide]	3.6	4.9	–
CCc1c(C(=O)NC(CC(C)C)C(=O)N[C@H]2CCN(S(=O)(=O)c3cccc[n+]3[O-])CCC2=O)oc2ccccc12 (single isomer, unassigned) [Example 207]	10	5.4	–
CC(C)C[C@@H](NC(=O)c1cnc2ccccc2n1)C(=O)N[C@@H]1CCCN(S(=O)(=O)c2ccccn2)CC1=O (stereo in doubt) [Example 30, Quinoxaline-2-carboxylic acid {(S)-3-methyl-1-[3-oxo-1-(pyridine-2-sulfonyl)-azepan-4-ylcarbamoyl]-butyl}amide]	17	10	–
CC(C)C[C@@H](NC(=O)c1cc2cc(F)ccc2o1)C(=O)N[C@H]1CCCN(S(=O)(=O)c2cccc[n+]2[O-])CC1=O (single isomer, unassigned) [Example 194]	8.7	6.7	–
CC(C)C[C@@H](NC(=O)c1ccc(Br)o1)C(=O)N[C@@H]1CCCN(S(=O)(=O)c2ccccn2)CC1=O (single isomer, unassigned) [Example 68]	3.3	0.93	–
CC(C)C[C@@H](NC(=O)c1cc2cc(F)c(F)cc2o1)C(=O)N[C@@H]1CCCN(S(=O)(=O)c2ccccn2)CC1=O (single isomer, unassigned) [Example 150]	5.4	3.7	–
CC(C)C[C@H](NC(=O)c1cnc2ccccc2n1)C(=O)NC1CCCN(C(=O)Nc2ccccc2F)CC1=O (stereo partly drawn) [Example 217, Quinoxaline-2-carboxylic acid {(S)-1-[1-(2-fluoro-phenylcarbamol)-3-oxo-azepan-4-ylcarbamoyl]-3-methyl-butyl}-amide]	11	6.7	–
CC(C)C[C@@H](NC(=O)c1ccc(Br)o1)C(=O)N[C@@H]1CCCN(S(=O)(=O)c2cccc[n+]2[O-])CC1=O [Example 50, 5-Bromo-furan-2-carboxylic acid {(S)-3-methyl-1-[3-oxo-1-(1-oxy-pyridine-2-sulfonyl)-azepan-4-ylcarbamoyl]-butyl}amide]	10	2.1	–
